# Data: PubChem BioAssay (NCI)
#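 Step 1: Grow cells in 96-well plates. Step 2: Expose to compound for 48 hours at 5 concentrations. Step 3: Interpolate endpoints linearly; if unreached, use highest concentration. Here, GI50 denotes the concentration required for 50% inhibition of growth. Definition used: TGI = concentration required for complete inhibition of growth.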
# How the values were obtained:
# Assay in all cases: NCI tumour cell line growth inhibition, 48 h
# [1] = tested on: 786-0 renal
# [2] = tested on: A498 renal
# [3] = tested on: A549 NSCLC
# [4] = tested on: ACHN renal
# [5] = tested on: BT-549 breast
# [6] = tested on: CAKI-1 renal
# [7] = tested on: CCRF-CEM leukemia
# [8] = tested on: COLO 205 colon
# [9] = tested on: DU-145 prostate
# [10] = tested on: EKVX NSCLC
# [11] = tested on: HCC-2998 colon
# [12] = tested on: HCT-116 colon
# [13] = tested on: HCT-15 colon
# [14] = tested on: HL-60(TB) leukemia
# [15] = tested on: HOP-62 NSCLC
# [16] = tested on: HOP-92 NSCLC
# [17] = tested on: HS 578T breast
# [18] = tested on: HT29 colon
# [19] = tested on: IGROV1 ovarian
# [20] = tested on: K-562 leukemia
# [21] = tested on: KM12 colon
# [22] = tested on: LOX IMVI melanoma
# [23] = tested on: M14 melanoma
# [24] = tested on: MALME-3M melanoma
# [25] = tested on: MCF7 breast
# [26] = tested on: MDA-MB-231 breast
# [27] = tested on: MDA-MB-435
# [28] = tested on: MOLT-4 leukemia
# [29] = tested on: NCI-H226 lung
# [30] = tested on: NCI-H23 lung
# [31] = tested on: NCI-H460 lung
# [32] = tested on: NCI-H522 lung
# [33] = tested on: NCI/ADR-RES ovarian
# [34] = tested on: OVCAR-3 ovarian
# [35] = tested on: OVCAR-4 ovarian
# [36] = tested on: OVCAR-5 ovarian
# [37] = tested on: OVCAR-8 ovarian
# [38] = tested on: PC-3 prostate
# [39] = tested on: RPMI-8226 leukemia
# [40] = tested on: RXF 393 renal
# [41] = tested on: SF-268 CNS
# [42] = tested on: SF-295 CNS
# [43] = tested on: SF-539 CNS
# [44] = tested on: SK-MEL-2 melanoma
# [45] = tested on: SK-MEL-28 melanoma
# [46] = tested on: SK-MEL-5 melanoma
# [47] = tested on: SK-OV-3 ovarian
# [48] = tested on: SN12C renal
# [49] = tested on: SNB-19 CNS
# [50] = tested on: SNB-75 CNS
# [51] = tested on: SR leukemia
# [52] = tested on: SW-620 colon
# [53] = tested on: T-47D breast
# [54] = tested on: TK-10 renal
# [55] = tested on: U251 CNS
# [56] = tested on: UACC-257 melanoma
# [57] = tested on: UACC-62 melanoma
# [58] = tested on: UO-31 renal
# [59] = tested on: MDA-N
compound,measurement,setting,value
CCSC[C@@H]1C[C@](O)(c2ccc(F)cc2)[C@@H](c2ccc(F)cc2)O1,GI50,[1],16.4 µM
same,TGI,[1],31.1 µM
same,GI50,[2],19 µM
same,TGI,[2],33.1 µM
same,GI50,[3],18.7 µM
same,TGI,[3],44 µM
same,GI50,[4],18.4 µM
same,TGI,[4],32.6 µM
same,GI50,[5],16.8 µM
same,TGI,[5],30.9 µM
same,GI50,[6],18.2 µM
same,TGI,[6],39.7 µM
same,GI50,[7],12.5 µM
same,TGI,[7],30.2 µM
same,GI50,[8],16.5 µM
same,TGI,[8],31.6 µM
same,GI50,[9],15.1 µM
same,TGI,[9],28.4 µM
same,GI50,[10],15.3 µM
same,TGI,[10],31.7 µM
same,GI50,[11],18.8 µM
same,TGI,[11],36.6 µM
same,GI50,[12],12.1 µM
same,TGI,[12],29.2 µM
same,GI50,[13],17.4 µM
same,TGI,[13],33 µM
same,GI50,[14],7 µM
same,TGI,[14],21.2 µM
same,GI50,[15],18.2 µM
same,TGI,[15],33.4 µM
same,GI50,[16],15.2 µM
same,TGI,[16],28.6 µM
same,GI50,[17],18 µM
same,TGI,[17],37 µM
same,GI50,[18],14.1 µM
same,TGI,[18],27.7 µM
same,GI50,[19],14.5 µM
same,TGI,[19],32.8 µM
same,GI50,[20],16 µM
same,TGI,[20],31.5 µM
same,GI50,[21],19.4 µM
same,TGI,[21],41.3 µM
same,GI50,[22],17.3 µM
same,TGI,[22],32.2 µM
same,GI50,[23],15.8 µM
same,TGI,[23],32.4 µM
same,GI50,[24],19.9 µM
same,TGI,[24],37.3 µM
same,GI50,[25],17.1 µM
same,TGI,[25],34.8 µM
same,GI50,[26],15.3 µM
same,TGI,[26],30.1 µM
same,GI50,[27],17.7 µM
same,TGI,[27],37.8 µM
same,GI50,[28],3.21 µM
same,TGI,[28],11.1 µM
same,GI50,[29],17.8 µM
same,TGI,[29],38.8 µM
same,GI50,[30],19.1 µM
same,TGI,[30],46.6 µM
same,GI50,[31],14.8 µM
same,TGI,[31],30.2 µM
same,GI50,[32],18.4 µM
same,TGI,[32],49.3 µM
same,GI50,[33],21.3 µM
same,TGI,[33],51 µM
same,GI50,[34],19.2 µM
same,TGI,[34],37.1 µM
same,GI50,[35],16.3 µM
same,TGI,[35],32.5 µM
same,GI50,[36],20.2 µM
same,TGI,[36],37.9 µM
same,GI50,[37],23.6 µM
same,TGI,[37],> 64.6 µM
same,GI50,[38],15.8 µM
same,TGI,[38],30 µM
same,GI50,[39],14.9 µM
same,TGI,[39],36.1 µM
same,GI50,[40],20.2 µM
same,TGI,[40],45.7 µM
same,GI50,[41],14.7 µM
same,TGI,[41],29.6 µM
same,GI50,[42],15.3 µM
same,TGI,[42],31.6 µM
same,GI50,[43],17 µM
same,TGI,[43],31.1 µM
same,GI50,[44],19.8 µM
same,TGI,[44],42 µM
same,GI50,[45],18.3 µM
same,TGI,[45],33.3 µM
same,GI50,[46],14.8 µM
same,TGI,[46],28 µM
same,GI50,[47],18.3 µM
same,TGI,[47],38 µM
same,GI50,[48],17.9 µM
same,TGI,[48],33.3 µM
same,GI50,[49],16.6 µM
same,TGI,[49],31.1 µM
same,GI50,[50],16.3 µM
same,TGI,[50],31.1 µM
same,GI50,[51],12.9 µM
same,TGI,[51],30 µM
same,GI50,[52],16.7 µM
same,TGI,[52],31.4 µM
same,GI50,[53],15 µM
same,TGI,[53],35.8 µM
same,GI50,[54],19.2 µM
same,TGI,[54],34.5 µM
same,GI50,[55],17.8 µM
same,TGI,[55],31.7 µM
same,GI50,[56],16.1 µM
same,TGI,[56],32.7 µM
same,GI50,[57],13.4 µM
same,TGI,[57],27.4 µM
same,GI50,[58],17 µM
same,TGI,[58],32.9 µM
COC1C(N(C)C)=C(c2ccccc2)C(=O)N2CCc3ccccc3C12 (stereo unspecified),TGI,[1],> 100 µM
same,TGI,[2],> 100 µM
same,TGI,[3],> 100 µM
same,TGI,[4],> 100 µM
same,TGI,[6],> 100 µM
same,TGI,[7],> 100 µM
same,TGI,[8],> 100 µM
same,TGI,[9],> 100 µM
same,TGI,[10],> 100 µM
same,TGI,[12],> 100 µM
same,TGI,[13],> 100 µM
same,TGI,[14],> 100 µM
same,TGI,[15],> 100 µM
same,TGI,[16],> 100 µM
same,TGI,[17],> 100 µM
same,TGI,[18],> 100 µM
same,TGI,[19],> 100 µM
same,TGI,[21],> 100 µM
same,TGI,[22],> 100 µM
same,TGI,[23],> 100 µM
same,TGI,[24],> 100 µM
same,TGI,[25],> 100 µM
same,TGI,[26],> 100 µM
same,TGI,[27],> 100 µM
same,TGI,[59],> 100 µM
same,TGI,[28],> 100 µM
same,TGI,[29],> 100 µM
same,TGI,[30],> 100 µM
same,TGI,[32],> 100 µM
same,TGI,[33],> 100 µM
same,TGI,[35],> 100 µM
same,TGI,[36],> 100 µM
same,TGI,[37],> 100 µM
same,TGI,[38],> 100 µM
same,TGI,[40],> 100 µM
same,TGI,[41],> 100 µM
same,TGI,[42],> 100 µM
same,TGI,[43],> 100 µM
same,TGI,[44],> 100 µM
same,TGI,[45],> 100 µM
same,TGI,[46],> 100 µM
same,TGI,[47],> 100 µM
same,TGI,[48],> 100 µM
same,TGI,[49],> 100 µM
same,TGI,[50],> 100 µM
same,TGI,[52],> 100 µM
same,TGI,[53],> 100 µM
same,TGI,[54],> 100 µM
same,TGI,[55],> 100 µM
same,TGI,[56],> 100 µM
same,TGI,[57],> 100 µM
same,TGI,[58],> 100 µM
CN(CCc1ccccn1)C(=S)N/N=C(\c1ccccc1)c1ccccn1,TGI,[1],2.68 µM
same,TGI,[2],0.942 µM
same,TGI,[3],8.42 µM
same,TGI,[4],1.92 µM
same,TGI,[6],5.3 µM
same,TGI,[7],> 100 µM
same,TGI,[8],17.3 µM
same,TGI,[9],5.66 µM
same,TGI,[10],2 µM
same,TGI,[11],5.39 µM
same,TGI,[12],2.02 µM
same,TGI,[13],12.8 µM
same,TGI,[14],> 100 µM
same,TGI,[15],7.95 µM
same,TGI,[16],3.59 µM
same,TGI,[17],> 26.4 µM
same,TGI,[18],2.77 µM
same,TGI,[19],1.57 µM
same,TGI,[20],> 100 µM
same,TGI,[21],2.37 µM
same,TGI,[22],2.04 µM
same,TGI,[23],8.43 µM
same,TGI,[24],3.14 µM
same,TGI,[25],> 100 µM
same,TGI,[27],8.09 µM
same,TGI,[59],8.51 µM
same,TGI,[28],7.26 µM
same,TGI,[30],4.26 µM
same,TGI,[31],7.07 µM
same,TGI,[32],5.22 µM
same,TGI,[34],10.4 µM
same,TGI,[35],2.23 µM
same,TGI,[36],7.88 µM
same,TGI,[37],1.56 µM
same,TGI,[38],6.67 µM
same,TGI,[39],2.14 µM
same,TGI,[40],2.83 µM
same,TGI,[42],2.7 µM
same,TGI,[44],4.35 µM
same,TGI,[45],6.01 µM
same,TGI,[46],6.65 µM
same,TGI,[47],2.19 µM
same,TGI,[48],15 µM
same,TGI,[49],9.07 µM
same,TGI,[50],4.25 µM
same,TGI,[51],15.9 µM
same,TGI,[52],20.2 µM
same,TGI,[53],4.82 µM
same,TGI,[54],3.27 µM
same,TGI,[55],> 36.6 µM
same,TGI,[56],1.94 µM
same,TGI,[57],2.04 µM
same,TGI,[58],1.83 µM
